# Data taken from publication PMC6664396, “A golden opportunity: benzofuranone modifications of aurones and their influence on optical properties, toxicity, and potential as dyes” (Beilstein Journal of Organic Chemistry, 2019).
# Columns and labels:
# [1] = UV–vis spectra in acetonitrile (λmax, extinction coefficient); assay type: physicochemical; parameters: λmax: unit: nm
# Protocol: With the desired compounds in hand, their UV–visible spectra were recorded at concentrations between 29 and 44 μM in acetonitrile (Figure 3 and Table 1). While not all substituents were prepared at every position, some interesting trends were observed. Substitution at the 4-position whether halogen or hydroxy afforded essentially identical lambda maxima (390 nm), slighly red-shifted compared to the unsubstituted compound 1. On the other hand, hydroxy groups at the 6-position result in a significant blue shift of this lambda max by roughly 40 nm to around 338 nm, presumably due to their donating effect and conjugation with the carbonyl oxygen. […] On the other hand, substitution at the 7-position had virtually no effect, which is to be expected due to the lack of direct conjugation with the carbonyl as well as the only modest electronic effects of alkyl, chlorine, and bromine. In general, the substituent effects are all fairly modest and result in fairly moderate changes in the extinction coefficient (although hydroxy substitution does definitely increase this value by roughly 50%).
# [2] = system: Hep G2 human liver cancer cells; experiment: Hep G2 cytotoxicity assay (MTT); assay type: cell-based; parameters: Average % Inhibition: tested at 200 µM; details: for Hep G2 % inhibition: 200 μM concentration of compound, 3 days incubation, MTT readout; for % Inhibition: Hep G2 MTT absorbance relative to vehicle; for Average % Inhibition: average of Triplicates 1-3 (T1, T2, T3), Hep G2 MTT
# Protocol: An initial screening of toxicity was conducted at a fairly high concentration (200 μM) on the present series of compounds using a standard HEP G2 inhibition assay (Table 1). Compared to a currently used yellow dye (tartrazine), the aurones are similar to more toxic. Within the aurone series, though, an interesting pair of trends can be observed. First, all hydroxylated aurones are comparatively more toxic, displaying >50% inhibition at 200 μM. Methyl groups are similarly mostly more toxic. For the halogens, however, location is fairly important, with the 6 or 7 position being much less toxic (similar to tartrazine) and dramatically better than the unsubstituted base compound 1, with the unexpected exception of 7-bromo compound 10. Whether this trend is general or not for aurone compounds is an interesting question for future study.
# Hep G2 cytotoxicity assay
# Hep G2 human liver cancer cells were cultured in phenol red Dulbecco’s
# Modified Eagle Medium (DMEM) with 10% fetal bovine serum (FBS) and 1% Pen-strep (PSG) under 37°C and 5% CO2 atmospheric conditions. The cells were washed with phosphate buffered saline (PBS) and diluted with phenol red free DMEM to a concentration between 200,000 to 250,000 cells/mL. The cells we re distributed in a 96-well plate with each well containing 100 µL of the cell solution and were allowed to settle for 2 hours in the incubator. The cells were then treated with 200 µM of the aurones in DMSO and the known dyes in 10:90 (v:v) DMSO/ultrapure water in triplicates and were left in the incubator for 3 days. The vehicles were used as the negative controls (DMSO for the aurones and 10:90 DMSO:ultrapure water for the known dyes). 20 µL of 5 mg/mL MTT (3-(4,5-dimethylthiazol-2-yl)-2,5-diphenyltetrazolium bromide) was added to each well containing treated cells after the 3-day incubation period and was allowed to settle in the incubator for 3.5 more hours. Finally, the media was removed from the wells and replaced by 100 µL of DMSO to lyse the cells and dissolve the formazan crystals that were formed. The absorbance was then recorded on the SpectraMax M5 Multi -Mode Microplate Reader. The procedure was repeated two more times using different batches of cultured Hep G2 cells on different days. […]
# [3] = UV–vis spectra determined in CH3CN
# [4] = supplement sheet Tabular ε Data, slope of linear equation, unit not given, in L mol⁻¹ cm⁻¹
# [5] = supplement sheet Tabular ε Data, unit not given
Molecule,"ε ([1]; UV–vis in CH3CN, at λmax)","λmax [1, 3]","ε [1, 4]","λmax [1, 5]",Hep G2 % inhibition [2],% Inhibition ([2]; Triplicate 1),% Inhibition ([2]; Triplicate 2),% Inhibition ([2]; Triplicate 3),Average % Inhibition [2]
Cc1ccc(C=C2Oc3ccccc3C2=O)cc1 [Compound 1],20208 L/mol/cm,382 nm,20208,382,86.27 ± 1.09%,88.03%,81.21%,89.58%,–
Cc1ccc(/C=C2\Oc3ccc(F)cc3C2=O)cc1 [Compound 2],17188 L/mol/cm,394 nm,17188,394,87.01 ± 0.56%,90.35%,81.77%,88.89%,–
Cc1ccc(/C=C2\Oc3cc(F)ccc3C2=O)cc1 [Compound 3],24252 L/mol/cm,370 nm,24252,370,3.52 ± 3.39%,5.64%,13.37%,-8.44%,–
Cc1ccc(/C=C2\Oc3cccc(Cl)c3C2=O)cc1 [Compound 4],17129 L/mol/cm,390 nm,17129,390,–,24.72%,7.19%,13.49%,15.13%
Cc1ccc(/C=C2\Oc3ccc(Cl)cc3C2=O)cc1 [Compound 5],16551 L/mol/cm,394 nm,16551,394,72.68 ± 2.77%,72.62%,63.25%,82.18%,–
Cc1ccc(/C=C2\Oc3cc(Cl)ccc3C2=O)cc1 [Compound 6],23187 L/mol/cm,378 nm,23187,378,25.07 ± 18.77%,19.67%,34.31%,21.23%,–
Cc1ccc(/C=C2\Oc3c(Cl)cccc3C2=O)cc1 [Compound 7],17247 L/mol/cm,386 nm,17247,386,3.64 ± 3.64%,7.01%,-3.78%,7.69%,–
Cc1ccc(C=C2Oc3ccc(Br)cc3C2=O)cc1 [Compound 8],15112 L/mol/cm,394 nm,15112,394,59.35 ± 1.25%,65.35%,37.11%,75.61%,–
Cc1ccc(/C=C2\Oc3cc(Br)ccc3C2=O)cc1 [Compound 9],22435 L/mol/cm,378 nm,22435,378,75.22 ± 3.84%,77.38%,72.50%,75.78%,–
Cc1ccc(/C=C2\Oc3c(Br)cccc3C2=O)cc1 [Compound 10],22250 L/mol/cm,390 nm,22250,390,–,8.16%,-1.79%,11.18%,5.85%
Cc1ccc(/C=C2\Oc3ccc(C)cc3C2=O)cc1 [Compound 11],15470 L/mol/cm,390 nm,15470,390,80.88 ± 1.38%,79.75%,75.21%,87.68%,–
Cc1ccc(/C=C2\Oc3cc(C)c(C)cc3C2=O)cc1 [Compound 12],19522 L/mol/cm,382 nm,19522,382,24.95 ± 2.23%,30.58%,22.83%,21.44%,–
Cc1ccc(/C=C2\Oc3c(C)cccc3C2=O)cc1 [Compound 13],18380 L/mol/cm,386 nm,18380,386,87.54 ± 1.61%,89.87%,82.08%,90.66%,–
Cc1ccc(/C=C2\Oc3cc(O)ccc3C2=O)cc1 [Compound 14],33050 L/mol/cm,338 nm,33050,338,66.79 ± 3.04%,60.23%,53.07%,87.07%,–
Cc1ccc(/C=C2\Oc3cccc(O)c3C2=O)cc1 [Compound 15],22664 L/mol/cm,390 nm,22664,390,54.04 ± 4.65%,62.56%,40.66%,58.91%,–
Cc1ccc(C=C2Oc3cc(O)cc(C)c3C2=O)cc1 [Compound 16],30445 L/mol/cm,338 nm,30445,338,67.76 ± 6.06%,77.36%,54.17%,71.74%,–
"O=C([O-])C1=NN(c2ccc(S(=O)(=O)[O-])cc2)C(=O)C1N=Nc1ccc(S(=O)(=O)[O-])cc1.[Na+].[Na+].[Na+] (stereo not shown) [tartrazine, reference compound]",–,–,–,–,6.81%,14.72%,3.80%,1.93%,–
Alizarin Y [reference compound],–,–,–,–,-54.45%,-50.46%,-60.58%,-52.30%,–
